Experimental data taken from US6673745B2, “Herbicidal 3,5-difluoropyridines” (BASF Aktiengesellschaft, priority 1997, dated 2004).

What was measured:
Assay type in all cases: in vivo
[1] = system: Abutilon theophrasti (ABUTH); assay: pre-emergence herbicidal test; conditions: second assessment 21 days after treatment
Description: (§1) To evaluate their herbicidal activity, compounds according to the invention are tested using a representative range of plants: […] The pre-emergence tests involve spraying a liquid formulation of the compound onto the soil in which the seeds of the plant species mentioned above has recently been sown. The soil used in the tests is a prepared horticultural loam. […] In these tests untreated sown soil are used as controls.

[2] = system: Alopecurus myosuroides (ALOMY); assay: pre-emergence herbicidal test; conditions: second assessment 21 days after treatment
Description: as §1

Glycine max (GLXMA) = assay: pre-emergence herbicidal test
Description: as §1

[3] = system: Ipomoea hederacea (IPOHE); assay: pre-emergence herbicidal test; conditions: second assessment 21 days after treatment
Description: as §1

[4] = system: Matricaria inodora (MATIN); assay: pre-emergence herbicidal test; conditions: second assessment 21 days after treatment
Description: as §1

Setaria viridis (SETVI) = assay: pre-emergence herbicidal test; conditions: second assessment 21 days after treatment
Description: as §1

[5] = system: Triticum aestivum (TRZAW); assay: pre-emergence herbicidal test
Description: as §1

Zea mays (ZEAMX) = assay: pre-emergence herbicidal test
Description: as §1

Galium aparine (GALAP) = assay: pre-emergence herbicidal test; conditions: second assessment 21 days after treatment
Description: (§2) To evaluate their herbicidal activity, compounds according to the invention are tested using a representative range of plants:
(§3) The pre-emergence tests involve spraying a liquid formulation of the compound onto the soil in which the seeds of the plant species mentioned above has recently been sown.
(§4) The soil used in the tests is a prepared horticultural loam. The formulations used in the tests are prepared from solutions of the test compounds in acetone containing 0.4% by weight of an alkylphenol/ethylene oxide condensate available under the trade mark TRITON X-155. These acetone solutions are diluted with water and the resulting formulations applied at dosage levels corresponding to 12.5 g, 25 g, 100 g or 400 g of active material per hectare in a volume equivalent to 900 liters per hectare. In these tests untreated sown soil are used as controls.
(§5) From 2 to 4 weeks after treatment, the tests are terminated and each pot is examined and rated according to the rating system set forth below: […]

Hordeum vulgare (HORVW) = assay: pre-emergence herbicidal test
Description: as §2, §3, §4, §5

Oryza sativa (ORYSA) = assay: pre-emergence herbicidal test
Description: as §2, §3, §4, §5

Stellaria media (STEME) = assay: pre-emergence herbicidal test; conditions: second assessment 21 days after treatment
Description: as §2, §3, §4, §5

Veronica persica (VERPE) = assay: pre-emergence herbicidal test; conditions: second assessment 21 days after treatment
Description: as §2, §3, §4, §5

weeds = assay: pre-emergence test, overall weed control; conditions: dose of 25 g/ha
Description: as §2, §3, §4
(§6) From 2 to 4 weeks after treatment, the tests are terminated and each pot is examined and rated according to the rating system set forth below:
(§7) The compounds of the invention have shown to clearly improve selectivity in important crops (maize, soybeans, wheat, barley) when compared to the corresponding compounds of the state of the art having a central 4-methylpyrid-2,6-diyl moiety instead of the 3,5-difluoro-4-methylpyrid-2,6-diyl group according to the invention.

rice, maize and wheat = assay: pre-emergence test, crop tolerance and selectivity; conditions: dose of 25 g/ha
Description: as §2, §3, §4, §6, §7

[6] = 0.0125 kg/ha, first assessment 10 days after treatment
[7] = 0.0125 kg/ha, second assessment 21 days after treatment
[8] = 0.025 kg/ha, first assessment 10 days after treatment
[9] = 0.025 kg/ha, second assessment 21 days after treatment
[10] = 0.100 kg/ha, first assessment 10 days after treatment
[11] = 0.100 kg/ha, second assessment 21 days after treatment
[12] = 0.400 kg/ha, first assessment 10 days after treatment
[13] = 0.400 kg/ha, second assessment 21 days after treatment

Cc1c(F)c(Oc2cc(C(F)(F)F)nn2C)nc(-c2ccc(C(F)(F)F)cc2)c1F [Example 1, 3,5-Difluoro4-methyl-2-(1-methyl-3-trifluoromethylpyrazol-5-yloxy)-6-(4-trifluoromethylphenyl)pyridine]
ABUTH rating ([1]; 0.0125 kg/ha): 6 (6 - Herbicidal effect) | ABUTH rating ([1]; 0.025 kg/ha): 9 (9 - Complete kill) | ABUTH rating ([1]; 0.100 kg/ha): 9 (9 - Complete kill) | ABUTH rating ([1]; 0.400 kg/ha): 9 (9 - Complete kill) | ALOMY rating ([2]; 0.0125 kg/ha): 7 (7 - Good herbicidal effect) | ALOMY rating ([2]; 0.025 kg/ha): 8 (8 - Approaching complete kill) | ALOMY rating ([2]; 0.100 kg/ha): 9 (9 - Complete kill) | ALOMY rating ([2]; 0.400 kg/ha): 9 (9 - Complete kill) | GLXMA rating (Glycine max (GLXMA); [6]): 2 (2 - Slight effect) | GLXMA rating (Glycine max (GLXMA); [7]): 4 (4 - Injury) | GLXMA rating (Glycine max (GLXMA); [8]): 2 (2 - Slight effect) | GLXMA rating (Glycine max (GLXMA); [9]): 4 (4 - Injury) | GLXMA rating (Glycine max (GLXMA); [10]): 3 (3 - Moderate effect) | GLXMA rating (Glycine max (GLXMA); [11]): 5 (5 - Definite injury) | GLXMA rating (Glycine max (GLXMA); [12]): 4 (4 - Injury) | GLXMA rating (Glycine max (GLXMA); [13]): 5 (5 - Definite injury) | IPOHE rating ([3]; 0.025 kg/ha): 3 (3 - Moderate effect) | IPOHE rating ([3]; 0.100 kg/ha): 9 (9 - Complete kill) | IPOHE rating ([3]; 0.400 kg/ha): 9 (9 - Complete kill) | MATIN rating ([4]; 0.0125 kg/ha): 8 (8 - Approaching complete kill) | MATIN rating ([4]; 0.025 kg/ha): 8 (8 - Approaching complete kill) | MATIN rating ([4]; 0.100 kg/ha): 9 (9 - Complete kill) | MATIN rating ([4]; 0.400 kg/ha): 9 (9 - Complete kill) | SETVI rating (Setaria viridis (SETVI); 0.0125 kg/ha): 7 (7 - Good herbicidal effect) | SETVI rating (Setaria viridis (SETVI); 0.025 kg/ha): 7 (7 - Good herbicidal effect) | SETVI rating (Setaria viridis (SETVI); 0.100 kg/ha): 9 (9 - Complete kill) | SETVI rating (Setaria viridis (SETVI); 0.400 kg/ha): 9 (9 - Complete kill) | TRZAW rating [5, 6]: 3 (3 - Moderate effect) | TRZAW rating [5, 7]: 3 (3 - Moderate effect) | TRZAW rating [5, 8]: 3 (3 - Moderate effect) | TRZAW rating [5, 9]: 3 (3 - Moderate effect) | TRZAW rating [5, 10]: 5 (5 - Definite injury) | TRZAW rating [5, 11]: 5 (5 - Definite injury) | TRZAW rating [5, 12]: 6 (6 - Herbicidal effect) | TRZAW rating [5, 13]: 6 (6 - Herbicidal effect) | ZEAMX rating (Zea mays (ZEAMX); [6]): 1 (1 - Trace effect) | ZEAMX rating (Zea mays (ZEAMX); [7]): 1 (1 - Trace effect) | ZEAMX rating (Zea mays (ZEAMX); [8]): 2 (2 - Slight effect) | ZEAMX rating (Zea mays (ZEAMX); [9]): 2 (2 - Slight effect) | ZEAMX rating (Zea mays (ZEAMX); [10]): 3 (3 - Moderate effect) | ZEAMX rating (Zea mays (ZEAMX); [11]): 3 (3 - Moderate effect) | GALAP rating (Galium aparine (GALAP); 0.0125 kg/ha): 3 (3 - Moderate effect) | GALAP rating (Galium aparine (GALAP); 0.025 kg/ha): 5 (5 - Definite injury) | GALAP rating (Galium aparine (GALAP); 0.100 kg/ha): 7 (7 - Good herbicidal effect) | GALAP rating (Galium aparine (GALAP); 0.400 kg/ha): 8 (8 - Approaching complete kill) | HORVW rating (Hordeum vulgare (HORVW); [6]): 4 (4 - Injury) | HORVW rating (Hordeum vulgare (HORVW); [7]): 4 (4 - Injury) | HORVW rating (Hordeum vulgare (HORVW); [8]): 5 (5 - Definite injury) | HORVW rating (Hordeum vulgare (HORVW); [9]): 4 (4 - Injury) | HORVW rating (Hordeum vulgare (HORVW); [10]): 5 (5 - Definite injury) | HORVW rating (Hordeum vulgare (HORVW); [11]): 5 (5 - Definite injury) | HORVW rating (Hordeum vulgare (HORVW); [12]): 6 (6 - Herbicidal effect) | HORVW rating (Hordeum vulgare (HORVW); [13]): 7 (7 - Good herbicidal effect) | ORYSA rating (Oryza sativa (ORYSA); [6]): 1 (1 - Trace effect) | ORYSA rating (Oryza sativa (ORYSA); [7]): 2 (2 - Slight effect) | ORYSA rating (Oryza sativa (ORYSA); [8]): 1 (1 - Trace effect) | ORYSA rating (Oryza sativa (ORYSA); [9]): 2 (2 - Slight effect) | ORYSA rating (Oryza sativa (ORYSA); [10]): 3 (3 - Moderate effect) | ORYSA rating (Oryza sativa (ORYSA); [11]): 4 (4 - Injury) | ORYSA rating (Oryza sativa (ORYSA); [12]): 4 (4 - Injury) | ORYSA rating (Oryza sativa (ORYSA); [13]): 5 (5 - Definite injury) | STEME rating (Stellaria media (STEME); 0.0125 kg/ha): 9 (9 - Complete kill) | STEME rating (Stellaria media (STEME); 0.025 kg/ha): 9 (9 - Complete kill) | STEME rating (Stellaria media (STEME); 0.100 kg/ha): 9 (9 - Complete kill) | STEME rating (Stellaria media (STEME); 0.400 kg/ha): 9 (9 - Complete kill) | VERPE rating (Veronica persica (VERPE); 0.0125 kg/ha): 8 (8 - Approaching complete kill) | VERPE rating (Veronica persica (VERPE); 0.025 kg/ha): 9 (9 - Complete kill) | VERPE rating (Veronica persica (VERPE); 0.100 kg/ha): 9 (9 - Complete kill) | VERPE rating (Veronica persica (VERPE); 0.400 kg/ha): 9 (9 - Complete kill) | overall levels of weed control (weeds): good overall levels of weed control | crop tolerance (rice, maize and wheat): well tolerated
